From patent US9415034B2, “Inhibitors and enhancers of uridine diphosphate-glucuronosyltransferase 2B (UGT2B)” (NATIONAL DEFENSE MEDICAL CENTER, priority 2005, dated 2016)

Test system: UGT2B
Experiment: in vitro
Protocol: In the following experiment, 27 different kinds of CHEs and 10 different excipients were used as UGT2B inhibitor in this invention. These CHEs are pure compounds available commercially, and were purchased from Sigma Chemical Co., Nacalai Tesque (Kyoto, Japan) and Indofine Chemical Co., Inc. (Somerville, N.J.). These UGT2B inhibitors are dissolved in alcohol at the concentration of 1, 10, 100 μM for the following experiment.
These excipients are dissolved in water and make up to 0.5%, 5%, 50% (wt %, w/v) for the following experiment. (Note: BRIJ is a registered trademark of ICI Americas, Inc.; Pluronic is a registered trademark of BASF Corporation.)
The Sprague-Dawley male rats, weighted 300-400 g are used as model animals in these experiments. The microsome is prepared as follows: • i. Sacrifice a rat after 12-16 hours fasting, take its liver; wipe dry the liver and weigh it. • ii. Add 300% (by volume) of cold 0.3M sucrose solution, and homogenize the liver. • iii. Centrifuge the homogenized liver suspension at 9000×g speed (KS-800, Kubota, made in Japan) for 10 min at 4° C. Collect the supernatant. • iv. Centrifuge the supernatant at 105,000×g speed (L8-60M, Beckman, made in USA) for 60 min at 4° C. • v. Remove the supernatant, add 0.3M sucrose (of the same volume) and repeat the homogenization. The homogenized liver suspension is the microsome. Store the microsome at −70° C.
Thaw the microsome before use. Add 5 μl/ml BRIJ®35 (Fisher et al. 2000, Drug Metabolism & Disposition. 28(5):560-6) into microsome by a ratio of microsome:BRIJ®35=8:1 (v/v).
The protein amount is determined as follows: • i. Take 0.1 ml microsome and dilute to 5 ml 0.85% NaCl (50-fold dilution, v/v). Take 0.2 ml of the diluted microsome and place it in a capped test tube (triple experiments). Separately, replacing microsome with 0.2 ml NaCl as the control. • ii. Add 2.2 ml Biuret regent (SIGMA, 690-A) into each test tube, mix well and store at room temperature for 10 min. • iii. Add 0.1 ml folin regent (SIGMA, 690-A), mix immediately, and store at room temperature for 30 min. Measure the absorbance at 550 nm wave length within the 30 min. Measure the concentration of protein in microsome based on the standard curve generated by various bovine albumin concentration and absorbance. 4. The Measurement of the Inhibition of UGT2B Activity in vitro • i. […] Mix solution (A) and 17 μl solution (B) thoroughly, place in a 37° C. water bath and shake at 125 rpm for 60 min. • iii. Add 1 ml ACN to interrupt the reaction. • iv. Centrifuge at 130,000×g speed at 4° C. for 5 min, and • v. […] 5.
Set the Ultra-violet detector's (SPD-10A, Shimadzu, Kyoto, made in Japan) wave length to 210 nm.
Those CHEs are commercially available pure compounds, acquired from Sigma Chemical Co., Nacalai Tesque (Kyoto, Japan) and […] (Somerville, N.J.). Their categories, names, sources, and chemical compositions are described in Table 5.

[1] = male, Sprague-Dawley, rat, % Inhibition (Mean ± SD)
[2] = male, Sprague-Dawley, rat, 60 min, 8.5 μM
[3] = male, Sprague-Dawley, rat, 60 min, 85 μM
[4] = male, Sprague-Dawley, rat, 60 min, 850 μM
[5] = male, Sprague-Dawley, rat, inhibition rate on the metabolism of nalbuphine in microsome
[6] = Table 2, inhibitor 8.5 μM, metabolism of nalbuphine in rat liver microsome
[7] = Table 2, inhibitor 85 μM, metabolism of nalbuphine in rat liver microsome
[8] = Table 2, inhibitor 850 μM, metabolism of nalbuphine in rat liver microsome
[9] = Table 6, enhancer 8.5 μM, negative = enhancement
[10] = Table 6, enhancer 85 μM, negative = enhancement
[11] = Table 6, enhancer 850 μM, negative = enhancement

Structure (SMILES)	inhibition at 60 min, 8.5 μM [1] [%]	inhibition at 60 min, 85 μM [1] [%]	inhibition at 60 min, 850 μM [1] [%]	inhibition at 60 min, 8.5 µM [1] [%]	inhibition at 60 min, 85 µM [1] [%]	inhibition at 60 min, 850 µM [1] [%]	further results
Oc1cc(O)c2c(c1)OC(c1ccc(O)c(O)c1)[C@@H](O)C2 (single isomer, unassigned; (+)) [(+)-catechin, (+)-Catechin]	-68.4 ± 7.34	-54.8 ± 9.38	-65.3 ± 47	–	–	–	–
Oc1cc(O)c2c(c1)OC(c1ccc(O)c(O)c1)[C@@H](O)C2 (single isomer, unassigned; (+)) [(+)-epicatechin, (+)-Epicatechin]	–	–	–	–	–	–	% Inhibition (Mean ± SD) [2]: −32.553 ± 1.578%; % Inhibition (Mean ± SD) [3]: −47.075 ± 0.533%; % Inhibition (Mean ± SD) [4]: −8.118 ± 1.256%
C=C(C)C1CC=C(C)CC1 (single isomer, unassigned; (+)) [(+)-limonene, (+)-Limonene]	–	–	–	18.3 ± 0.793	45.3 ± 7.84	44.2 ± 2.28	inhibition at 60 min [5]: ≥ 30%
Oc1cc(O)c2c(c1)OC(c1ccc(O)c(O)c1)[C@@H](O)C2 (single isomer, unassigned; (-)) [(−)-epicatechin, (−)-Epicatechin]	–	–	–	–	–	–	% Inhibition (Mean ± SD) [2]: −28.68 ± 17.634%; % Inhibition (Mean ± SD) [3]: −23.53 ± 27.304%; % Inhibition (Mean ± SD) [4]: −48.35 ± 39.354%
CC(=O)OCCCc1ccccc1 [3-phenylpropyl acetate, 3-Phenylpropyl Acetate]	-26.3 ± 27.3	17.3 ± 5.84	2.39 ± 22.5	-26.3 ± 27.3	17.3 ± 5.84	2.39 ± 22.5	–
O=c1cc(-c2ccc(O)cc2)oc2cc(O)cc(O)c12 [apigenin, Apigenin]	-26.7 ± 13.1	54 ± 15.8	-16.1 ± 17.9	-26.7 ± 13.1	54 ± 15.8	-16.1 ± 17.9	–
O=c1cc(-c2ccccc2)oc2cc(O)c(O)c(O)c12 [baicalein]	-99.6 ± 12.8	-125 ± 8.62	–	–	–	–	inhibition at 60 min, 212.5 μM [1]: -146 ± 8.47%
O=C(O)[C@H]1O[C@@H](Oc2cc3oc(-c4ccccc4)cc(=O)c3c(O)c2O)[C@H](O)[C@@H](O)[C@@H]1O [baicalin]	–	–	–	–	–	–	% Inhibition (Mean ± SD) [6]: 36.298 ± 9.403%; % Inhibition (Mean ± SD) [7]: 46.253 ± 22.923%; % Inhibition (Mean ± SD) [8]: 44.262 ± 2.879%
COc1c(O)cc2oc(Oc3ccc(O)cc3)cc(=O)c2c1O [capillarisin, Capillarisin]	–	–	–	111 ± 21.8	105 ± 21.8	105 ± 19.3	inhibition at 60 min [5]: 111%
CC12CCC(CC1)C(C)(C)O2 [cineole, Cineole]	-8.41 ± 18.6	-12.1 ± 6.68	58.9 ± 8.56	-8.41 ± 18.6	-12.1 ± 6.68	58.9 ± 8.56	–
O=c1c(-c2ccc(O)cc2)coc2cc(O)ccc12 [daidzein, Daidzein]	-128 ± 20.8	-138 ± 4.62	–	–	–	–	inhibition at 60 min, 425 μM [1]: -138 ± 2.31%
O=c1c(-c2ccc(O)cc2)coc2cc(O[C@@H]3O[C@H](CO)[C@@H](O)[C@H](O)[C@H]3O)ccc12 [daidzin, Daidzin]	–	–	–	–	–	–	inhibition at 60 min, 8.5 μM (male, Sprague-Dawley, rat): -29.5 ± 22%; inhibition at 60 min, 85 μM (male, Sprague-Dawley, rat): -41.5 ± 17%; inhibition at 60 min, 850 μM (male, Sprague-Dawley, rat): -61 ± 21.1%
CC(C)[C@@H](C)/C=C/[C@@H](C)[C@H]1CC[C@H]2C3=CC=C4C[C@@H](O)CC[C@]4(C)[C@H]3CC[C@]12C [ergosterol, Ergosterol]	–	–	–	–	–	–	inhibition at 60 min, 8.5 μM (male, Sprague-Dawley, rat, liver microsomes, probe nalbuphine, % Inhibition (Mean ± SD), Table 6, enhancer 8.5 μM, negative = enhancement): -12.5 ± 28.9%; inhibition at 60 min, 85 μM (male, Sprague-Dawley, rat, liver microsomes, probe nalbuphine, % Inhibition (Mean ± SD), Table 6, enhancer 85 μM, negative = enhancement): -28.3 ± 20.3%; inhibition at 60 min, 850 μM (male, Sprague-Dawley, rat, liver microsomes, probe nalbuphine, % Inhibition (Mean ± SD), Table 6, enhancer 850 μM, negative = enhancement): -34.6 ± 19.9%
O=C1CC(c2ccc(O)c(O)c2)Oc2cc(O)cc(O)c21 (centres unmarked) [eriodictyol, Eriodictyol]	-1.06 ± 3.71	-17.1 ± 2.3	14.1 ± 2.88	-1.06 ± 3.71	-17.1 ± 2.3	14.1 ± 2.88	inhibition at 60 min [5]: ≥ 30%
CCCCCCCCCCCCCC(=O)OCC [ethyl myristate, Ethyl Myristate]	-27.8 ± 14.7	-12.1 ± 5.71	6.33 ± 1.48	-27.8 ± 14.7	-12.1 ± 5.71	6.33 ± 1.48	–
COc1ccc(-c2coc3cc(O)ccc3c2=O)cc1 [formononetin, Formononetin]	-86.5 ± 3.49	-31.5 ± 4.78	-24.7 ± 4.42	–	–	–	–
O=C(O)c1cc(O)c(O)c(O)c1 [gallic acid, Gallic Acid]	–	–	–	15.8 ± 4.42	8.05 ± 3.02	12.2 ± 4.08	–
O=c1c(-c2ccc(O)cc2)coc2cc(O)cc(O)c12 [genistein, Genistein]	–	–	–	–	–	–	inhibition at 60 min, 8.5 µM (male, Sprague-Dawley, rat): 15.6 ± 6.05%; inhibition at 60 min, 8.5 μM (male, Sprague-Dawley, rat): 15.6 ± 6.05%; inhibition at 60 min, 85 µM (male, Sprague-Dawley, rat): 5.73 ± 6.41%; inhibition at 60 min, 85 μM (male, Sprague-Dawley, rat): 5.73 ± 6.41%; inhibition at 60 min, 850 µM (male, Sprague-Dawley, rat): -9.2 ± 5.18%; inhibition at 60 min, 850 μM (male, Sprague-Dawley, rat): -9.2 ± 5.18%
COc1cc(O)c2c(=O)cc(-c3ccc(O)cc3)oc2c1 [genkwanin]	-27 ± 4.51	-77.7 ± 20.7	-43.2 ± 18.8	–	–	–	–
CC1(C)[C@@H](O[C@H]2O[C@H](C(=O)O)[C@@H](O)[C@H](O)[C@H]2O[C@@H]2O[C@H](C(=O)O)[C@@H](O)[C@H](O)[C@H]2O)CC[C@]2(C)[C@H]3C(=O)C=C4[C@@H]5C[C@@](C)(C(=O)O)CC[C@]5(C)CC[C@@]4(C)[C@]3(C)CC[C@@H]12 [glycyrrhizin, Glycyrrhizin]	9.93 ± 6.66	-20.3 ± 3.67	-5.65 ± 6.62	9.93 ± 6.66	-20.3 ± 3.67	-5.65 ± 6.62	–
COc1ccc(C2CC(=O)c3c(O)cc(O)cc3O2)cc1O (centres unmarked) [hesperetin, Hesperetin]	51.7 ± 21.7	-59.1 ± 18.9	-124 ± 49.4	51.7 ± 21.7	-59.1 ± 18.9	-124 ± 49.4	inhibition at 60 min [5]: ≥ 30%
COc1ccc([C@@H]2CC(=O)c3c(O)cc(O[C@@H]4O[C@H](CO[C@@H]5O[C@@H](C)[C@H](O)[C@@H](O)[C@H]5O)[C@@H](O)[C@H](O)[C@H]4O)cc3O2)cc1O [hesperidin, Hesperidin]	2.16 ± 2.73	-32 ± 10.3	-42 ± 4.25	–	–	–	–
O=c1cc(-c2ccc(O)c(O)c2)oc2cc(O)c([C@@H]3O[C@H](CO)[C@@H](O)[C@H](O)[C@H]3O)c(O)c12 [homoorientin, Homoorientin]	–	–	–	–	–	–	% Inhibition (Mean ± SD) [9]: −128.53 ± 27.613%; % Inhibition (Mean ± SD) [10]: −127.21 ± 28.005%; % Inhibition (Mean ± SD) [11]: −133.17 ± 26.968%
O=c1c(O[C@@H]2O[C@H](CO)[C@@H](O)[C@H](O)[C@H]2O)c(-c2ccc(O)c(O)c2)oc2cc(O)cc(O)c12 [isoquercitrin, Isoquercitrin]	–	–	–	–	–	–	% Inhibition (Mean ± SD) [9]: −8.089 ± 2.404%; % Inhibition (Mean ± SD) [10]: −19.119 ± 21.887%; % Inhibition (Mean ± SD) [11]: −71.696 ± 20.468%
COc1cc(-c2oc3cc(O)cc(O)c3c(=O)c2O)ccc1O [isorhamnetin, Isorhamnetin]	–	–	–	–	–	–	inhibition at 60 min (male, Sprague-Dawley, rat): ≥ 30%; inhibition at 60 min, 8.5 µM (male, Sprague-Dawley, rat): 88.4 ± 11.6%; inhibition at 60 min, 85 µM (male, Sprague-Dawley, rat): 85.1 ± 14.7%; inhibition at 60 min, 850 µM (male, Sprague-Dawley, rat): 107 ± 8.1%
O=c1cc(-c2ccc(O)cc2)oc2cc(O)c([C@@H]3O[C@H](CO)[C@@H](O)[C@H](O)[C@H]3O)c(O)c12 [isovitexin, Isovitexin]	–	–	–	–	–	–	% Inhibition (Mean ± SD) [6]: 29.821 ± 9.786%; % Inhibition (Mean ± SD) [7]: −5.528 ± 9.096%; % Inhibition (Mean ± SD) [8]: −12.377 ± 8.912%; % Inhibition (Mean ± SD) [9]: 29.821 ± 9.786%; % Inhibition (Mean ± SD) [10]: −5.528 ± 9.096%; % Inhibition (Mean ± SD) [11]: −12.377 ± 8.912%
